≈ marks a conversion by molar mass, not a printed value. Where two headings read alike, the source gives them in different places.
Legend:
[1] = test system: C. krusei ATCC 6258; test: Antimicrobial susceptibility testing, Ck; type: cell-based, Candida krusei; settings: Candida krusei
Experimental: (§1) Compounds were evaluated in vitro against a panel of microorganisms, including Candida albicans ATCC 90028 (Ca), C. krusei ATCC 6258 (Ck), Cryptococcus neoformans ATCC 90113 (Cn), Staphylococcus aureus ATCC 29213 (Sa), methicillin-resistant S. aureus ATCC 43300 (MRSA), Pseudomonas aeruginosa ATCC 27853 (Pa), Aspergilllus fumigatus ATCC 90906 (Aj), and Mycobacterium intracellulare ATCC 23068 (Mi) as previously reported [Guoyi, M.; Khan, S.; Jacob, M. R; Tekwani, B. L.; Li, Z.; Pasco, D. S.; Walker, L. A.; Khan, 1. A.; Antimicrob Agents Chemother, 2004, 48, 4450-4452]. All organisms were obtained from the American Type Culture Collection (Manassas, Va.). Susceptibility testing was performed using a modified version of the NCCLS methods [a) National Committee for Clinical Laboratory Standards. 2000. Methods for dilution antimicrobial susceptibility tests for bacteria that grow aerobically. M7-A5. National Committee for Clinical Laboratory Standards, Wayne, Pa. b) National Committee for Clinical Laboratory Standards, 1997, Reference method for broth dilution antifungal susceptibility testing of yeasts. Approved standard M27-A. National Committee for Clinical Laboratory Standards, Wayne, Pa. c) National Committee for Clinical Laboratory Standards. 2000. Susceptibility testing of mycobacteria, nocardia, and other aerobic actinomycetes, 2nd ed. Tentative standard M24- T2. […] Microbial inocula were prepared after comparison of the absorbance (at 630 nm) of cell suspensions to the 0.5 McFarland standard and dilution of the suspensions in broth (Sabouraud dextrose and cation-adjusted Mueller-Hinton broth [Difco] for the fungi and bacteria, respectively, and 5% Alamar blue [BioSource international] in Middlebrook 7H9 broth with oleic acid-albumin-dextrose-catalase enrichment for M intracellulare) to afford recommended inoculum sizes. […] The plates were read at either 630 nm or excitation and emission wavelengths of 544 and 590 nm (for Mi) prior to and after incubation. […]

[2] = test system: Cryptococcus neoformans ATCC 90113; test: Antifungal susceptibility testing (modified NCCLS), Cn; type: cell-based; settings: NA not defined in Table 1
Experimental: (§2) Compounds were evaluated in vitro against a panel of microorganisms, including Candida albicans ATCC 90028 (Ca), C. krusei ATCC 6258 (Ck), Cryptococcus neoformans ATCC 90113 (Cn), Staphylococcus aureus ATCC 29213 (Sa), methicillin-resistant S. aureus ATCC 43300 (MRSA), Pseudomonas aeruginosa ATCC 27853 (Pa), Aspergilllus fumigatus ATCC 90906 (Aj), and Mycobacterium intracellulare ATCC 23068 (Mi) as previously reported [Guoyi, M.; Khan, S.; Jacob, M. R; Tekwani, B. L.; Li, Z.; Pasco, D. S.; Walker, L. A.; Khan, 1. A.; Antimicrob Agents Chemother, 2004, 48, 4450-4452]. All organisms were obtained from the American Type Culture Collection (Manassas, Va.). Susceptibility testing was performed using a modified version of the NCCLS methods [a) National Committee for Clinical Laboratory Standards. 2000. Methods for dilution antimicrobial susceptibility tests for bacteria that grow aerobically. M7-A5. National Committee for Clinical Laboratory Standards, Wayne, Pa. b) National Committee for Clinical Laboratory Standards, 1997, Reference method for broth dilution antifungal susceptibility testing of yeasts. Approved standard M27-A. National Committee for Clinical Laboratory Standards, Wayne, Pa. c) National Committee for Clinical Laboratory Standards. 2000. Susceptibility testing of mycobacteria, nocardia, and other aerobic actinomycetes, 2nd ed. Tentative standard M24- T2. National Committee for Clinical Laboratory Standards, Wayne, Pa.] for all organisms except for M intracellulare, for which the modified Alamar blue procedure described by Franzblau et al [1998. J Clin Microbiol, 36, 362-366] was followed. Briefly, samples (dissolved in DMSO) were serially diluted by using 0.9% saline and transferred in duplicate to 96-well microplates. Microbial inocula were prepared after comparison of the absorbance (at 630 nm) of cell suspensions to the 0.5 McFarland standard and dilution of the suspensions in broth (Sabouraud dextrose and cation-adjusted Mueller-Hinton broth [Difco] for the fungi and bacteria, respectively, and 5% Alamar blue [BioSource international] in Middlebrook 7H9 broth with oleic acid-albumin-dextrose-catalase enrichment for M intracellulare) to afford recommended inoculum sizes. Microbial inocula were added to the samples to achieve a final volume of 200 μl and final sample concentrations starting with 100 μg/ml. Growth, solvent, and medium controls were included on each test plate. The plates were read at either 630 nm or excitation and emission wavelengths of 544 and 590 nm (for Mi) prior to and after incubation. Percent growth was calculated and plotted with the concentration tested to afford the concentration that inhibits 50% of growth (IC50). Antimalarial and cytotoxicity testing were conducted in a similar manner as previously reported [a) Muhammad, 1.; Bedir, E.; Khan, S. I.; Tekwani, B. L.; Khan, I. A.; Takamatsu, S.; Pelletier, 1.; Walker, L. A. J Nat Prod. 2004, 67, 772-7. b) Muhammad, 1.; Dunbar, D. C.; Khan, S. 1.; Tekwani, B. L.; Bedir, E.; Takamatsu, S.; Ferreira, D, Walker L A., J Nat Prod. 2003, 66, 962-7].

[3] = test system: Aspergillus fumigatus ATCC 90906; test: Antimicrobial susceptibility testing, Af; type: cell-based
Experimental: as §2, with “Antimalarial and cytotoxicity testing were conducted in a similar manner as previously reported [a) Muhammad, 1.; Bedir, E.; Khan, S. I.; Tekwani, B. L.; Khan, I. A.; Takamatsu, S.; Pelletier, 1.; Walker, L. A. J Nat Prod. 2004, 67, 772-7. b) Muhammad, 1.; Dunbar, D. C.; Khan, S. 1.; Tekwani, B. L.; Bedir, E.; Takamatsu, S.; Ferreira, D, Walker L A., J Nat Prod. 2003, 66, 962-7].” left out

[4] = test system: Candida albicans ATCC 90028; test: Antifungal susceptibility testing (modified NCCLS), Ca; type: cell-based; settings: NA not defined in Table 1
Experimental: as §2

[5] = test system: Vero cells; test: Cytotoxicity to mammalian cells (Vero); type: cell-based
Experimental: (§3) All organisms were obtained from the American Type Culture Collection (Manassas, Va.). Susceptibility testing was performed using a modified version of the NCCLS methods [a) National Committee for Clinical Laboratory Standards. 2000. Methods for dilution antimicrobial susceptibility tests for bacteria that grow aerobically. M7-A5. […] Approved standard M27-A. National Committee for Clinical Laboratory Standards, Wayne, Pa. c) National Committee for Clinical Laboratory Standards. 2000. Susceptibility testing of mycobacteria, nocardia, and other aerobic actinomycetes, 2nd ed. Tentative standard M24- T2. […] Briefly, samples (dissolved in DMSO) were serially diluted by using 0.9% saline and transferred in duplicate to 96-well microplates. Microbial inocula were prepared after comparison of the absorbance (at 630 nm) of cell suspensions to the 0.5 McFarland standard and dilution of the suspensions in broth (Sabouraud dextrose and cation-adjusted Mueller-Hinton broth [Difco] for the fungi and bacteria, respectively, and 5% Alamar blue [BioSource international] in Middlebrook 7H9 broth with oleic acid-albumin-dextrose-catalase enrichment for M intracellulare) to afford recommended inoculum sizes. Microbial inocula were added to the samples to achieve a final volume of 200 μl and final sample concentrations starting with 100 μg/ml. Growth, solvent, and medium controls were included on each test plate. […] Antimalarial and cytotoxicity testing were conducted in a similar manner as previously reported [a) Muhammad, 1.; Bedir, E.; Khan, S. I.; Tekwani, B. L.; Khan, I. A.; Takamatsu, S.; Pelletier, 1.; Walker, L. A. J Nat Prod.

[6] = test system: Plasmodium falciparum D6 Clone; test: Antimalarial testing, D6 clone; type: cell-based; settings: Plasmodium falciparum
Experimental: as §3

[7] = test system: Plasmodium falciparum W2 Clone; test: Antimalarial testing, W2 clone; type: cell-based; settings: Plasmodium falciparum
Experimental: as §2

[8] = test system: Mycobacterium intracellulare ATCC 23068; test: Modified Alamar blue procedure, Mi; type: cell-based; settings: ATCC23068, read-out: IC50 Mi
Experimental: as §2, with “Antimalarial and cytotoxicity testing were conducted in a similar manner as previously reported [a) Muhammad, 1.; Bedir, E.; Khan, S. I.; Tekwani, B. L.; Khan, I. A.; Takamatsu, S.; Pelletier, 1.; Walker, L. A. J Nat Prod. 2004, 67, 772-7. b) Muhammad, 1.; Dunbar, D. C.; Khan, S. 1.; Tekwani, B. L.; Bedir, E.; Takamatsu, S.; Ferreira, D, Walker L A., J Nat Prod. 2003, 66, 962-7].” left out

[9] = test system: Staphylococcus aureus ATCC 29213; test: Antimicrobial susceptibility testing, Sa; type: cell-based; settings: ATCC29213
Experimental: as §1, with “2000.” for “2000. Methods for dilution antimicrobial susceptibility tests for bacteria that grow aerobically. M7-A5. National Committee for Clinical Laboratory Standards, Wayne, Pa. b) National Committee for Clinical Laboratory Standards, 1997, Reference method for broth dilution antifungal susceptibility testing of yeasts. Approved standard M27-A. National Committee for Clinical Laboratory Standards, Wayne, Pa. c) National Committee for Clinical Laboratory Standards. 2000. Susceptibility testing of mycobacteria, nocardia, and other aerobic actinomycetes, 2nd ed. Tentative standard M24- T2.”

[10] = test system: Pseudomonas aeruginosa ATCC 27853; test: Antimicrobial susceptibility testing, Pa; type: cell-based; settings: ATCC27853, NA = Not active up to 20 μg/ml
Experimental: as §1, with “2000.” for “2000. Methods for dilution antimicrobial susceptibility tests for bacteria that grow aerobically. M7-A5. National Committee for Clinical Laboratory Standards, Wayne, Pa. b) National Committee for Clinical Laboratory Standards, 1997, Reference method for broth dilution antifungal susceptibility testing of yeasts. Approved standard M27-A. National Committee for Clinical Laboratory Standards, Wayne, Pa. c) National Committee for Clinical Laboratory Standards. 2000. Susceptibility testing of mycobacteria, nocardia, and other aerobic actinomycetes, 2nd ed. Tentative standard M24- T2.”

[11] = test system: methicillin-resistant S. aureus ATCC 43300; test: Antimicrobial susceptibility testing, MRSA; type: cell-based, Staphylococcus aureus; settings: Methicillin-Resistant Staphylococcus aureus; read-out: IC50 MRSA
Experimental: as §2, with “Antimalarial and cytotoxicity testing were conducted in a similar manner as previously reported [a) Muhammad, 1.; Bedir, E.; Khan, S. I.; Tekwani, B. L.; Khan, I. A.; Takamatsu, S.; Pelletier, 1.; Walker, L. A. J Nat Prod. 2004, 67, 772-7. b) Muhammad, 1.; Dunbar, D. C.; Khan, S. 1.; Tekwani, B. L.; Bedir, E.; Takamatsu, S.; Ferreira, D, Walker L A., J Nat Prod. 2003, 66, 962-7].” left out

Structure (SMILES): c1ccc2c(c1)cc1[nH]c3ccccc3c1[n+]2CCCCC[n+]1c2ccccc2cc2[nH]c3ccccc3c21 (hydrate or solvate) [Compound 10]
- melting point: 256 to 258 °C

Structure (SMILES): C[n+]1c2ccccc2cc2c1c1ccccc1n2CCCCCn1c2ccccc2c2c1cc1ccccc1[n+]2C (hydrate or solvate) [Compound 12]
- melting point: 238 to 240 °C

Structure (SMILES): C[C@@H]1[C@H](O)[C@@H](C)/C=C/C=C/C=C/C=C/C=C/C=C/C=C/[C@H](O[C@@H]2O[C@H](C)[C@@H](O)[C@H](N)[C@@H]2O)C[C@@H]2O[C@](O)(C[C@@H](O)C[C@@H](O)[C@H](O)CC[C@@H](O)C[C@@H](O)CC(=O)O[C@H]1C)C[C@H](O)[C@H]2C(=O)O [Amphotericin B, reference compound]
- IC50 Ck [1]: 0.60 µg/mL (≈ 0.649 µM)
- IC50 Cn [2]: 0.6 µg/mL (≈ 0.649 µM)
- IC50 Af [3]: 0.31 µg/mL (≈ 0.335 µM)
- IC50 Ca [4]: 0.1 µg/mL (≈ 0.108 µM)
- Cytotoxicity (Vero) TC50 [5]: 6500 ng/mL

Structure (SMILES): C[C@@H]1CC[C@H]2[C@@H](C)C(=O)O[C@@H]3O[C@@]4(C)CC[C@@H]1[C@]32OO4 [Artemisinin, reference compound]
- IC50 ([6]; D6 Clone, read-out: Plasmodium falciparum IC50 Pf (D6)): 0.0085 µg/mL (≈ 0.0301 µM)
- Cytotoxicity (Vero) TC50 ([5]; African green monkey): >23800 ng/mL
- IC50 ([7]; W2 Clone, NA = Not active up to 20 μg/ml, read-out: Plasmodium falciparum IC50 Pf (W2)): 0.0031 µg/mL (≈ 0.011 µM)

Structure (SMILES): CCN(CC)CCCC(C)Nc1ccnc2cc(Cl)ccc12 (centres unmarked) [Chloroquine, reference compound]
- IC50 ([6]; D6, read-out: Plasmodium falciparum IC50 Pf (D6)): 0.017 µg/mL (≈ 0.0531 µM)
- Cytotoxicity (Vero) TC50 ([5]; Vero cells, NC = No Cytotoxicity observed up to 5 μg/ml): >23800 ng/mL
- IC50 ([7]; W2, read-out: Plasmodium falciparum IC50 Pf (W2)): 0.075 µg/mL (≈ 0.234 µM)

Structure (SMILES): O=C(O)c1cn(C2CC2)c2cc(N3CCNCC3)c(F)cc2c1=O [Ciprofloxacin, reference compound]
- IC50 [8]: 0.2 µg/mL (≈ 0.604 µM)
- IC50 [9]: 0.1 µg/mL (≈ 0.302 µM)
- IC50 [10]: 0.06 µg/mL (≈ 0.181 µM)
- IC50 [11]: 0.15 µg/mL (≈ 0.453 µM)

Source: patent US8158646B2, “Antifungal and antiparasitic indoloquinoline derivates” (Florida Agricultural and Mechanical University, priority 2006, dated 2012)
